Measurements: ChEMBL document CHEMBL3734721 (J Med Chem, 2015)
pEC50, pIC50: −log10 of the molar value.

Columns and labels:
[1] = molecular target: T1, Delta-type opioid receptor (Homo sapiens, UniProt P41143); assay: Agonist activity at human wild-type opioid-delta 1 receptor expressed in CHO-K1 cells assessed as cAMP level by HTRF assay; format: functional, cell-based
[2] = molecular target: T1, Delta-type opioid receptor; assay: Antagonist activity at human wild-type opioid-delta 1 receptor expressed in CHO-K1 cells assessed as DPDPE-induced cAMP by HTRF assay; format: functional, cell-based
[3] = tested on: Salmonella typhimurium; assay: Mutagenicity in Salmonella typhimurium by Ames test; format: toxicity, organism-based; details: salmonella enterica subsp. enterica serovar typhimurium
[4] = tested on: human MDR1; assay: Efflux ratio of permeability across basolateral to apical side over apical to basolateral side in MDCK cells expressing human MDR1 at 5 uM by LC-MS/MS method; format: ADME, cell-based, Canis lupus familiaris; details: dog
[5] = Chemical stability of compound in 0.1N HCL and 0.5% H2O2 assessed as compound remaining at 10 mg/ml after 1 day; format: physicochemical; details: read-out: Stability

T1 sequence (P41143 whole entry): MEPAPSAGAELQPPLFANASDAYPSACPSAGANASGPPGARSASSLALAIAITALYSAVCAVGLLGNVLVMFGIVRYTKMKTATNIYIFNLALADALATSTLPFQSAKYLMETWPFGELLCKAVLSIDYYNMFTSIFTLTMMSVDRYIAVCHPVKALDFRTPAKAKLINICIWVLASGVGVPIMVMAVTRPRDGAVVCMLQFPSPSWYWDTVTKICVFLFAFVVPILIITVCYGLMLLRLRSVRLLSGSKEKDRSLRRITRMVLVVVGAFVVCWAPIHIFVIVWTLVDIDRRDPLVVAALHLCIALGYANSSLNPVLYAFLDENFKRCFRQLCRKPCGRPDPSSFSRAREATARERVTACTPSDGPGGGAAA

pEC50 [1] | pIC50 [2] | efflux ratio at 5 µM [4] | remaining at 24 h, 10 mg/ml [5] | Compound | Activity [3]
< 5.30 | < 5.30 | – | – | CB1C=Cc2c(cccc2OCC(O)CN(C)C)N1 (stereo not given) | –
– | – | 2.1 | 0% | CB1C=Cc2cccc(OCC(O)CNC(C)C)c2N1 (stereo not given) | Non-toxic
